Here are results for 3 compounds from patent US6448256B1, “Antibiotic prodrugs” (University of Massachusetts, priority 1999, dated 2002).

≈ marks a conversion by molar mass, not a printed value. Where “and” joins values, the source holds several entries; their conditions need not be identical. Equal entries are not always repeated. Where two headings read alike, the source gives them in different places.

The subject of one series is E. fecalis. The experiment in a line: MIC against E. fecalis. The class given is cell-based. As to conditions: for MIC: Table 6, read-out: MIC E. fecalis. How it is done:
(§1) To further investigate the antibacterial and/or DNA pol III inhibitory activity of various drug compounds, various ester-containing moieties N-linked to the EMAU core were produced as described in Example 1. These prodrugs were assayed for inhibition of B. subtilis DNA pol III and antibiotic activity against a number of bacteria.
(§2) The minimal inhibitory concentrations (MICs) of the four N3-substituted agents and EMAU were determined for B. subtilis (BS), methicillin-sensitive and resistant S. aureus (SA & MRSA), vancomycin-sensitive and resistant E. fecalis (EF& VREF), vancomycin-resistant E. fecium (VREF*), and E. coli (EC) as a Gram-negative control.

Series [1] deals with S. aureus. Description: Bactericidal activity (killing) against S. aureus. Conditions: 2, 4, and 8× MIC, killing continued for 24 hours. Type of series: cell-based.
A short description of series [2]: Prodrug conversion in mouse plasma in vitro (HPLC). The class given is in vitro ADME. Here is the method:
(§3) The conversion rate of prodrugs can be measured by first establishing a reverse phase HPLC method for the detection of both prodrug and drug in a biological sample such as plasma or serum. A stock solution of prodrug, usually in saline, is diluted 1:5 in animal plasma or saline. […] If necessary, the sample can be thawed in a 37° C. water bath. Aliquots of the diluted sample are taken at 15, 30, 45, 60, 90, 120, and 180 minutes. Longer time points are usually needed for saline solutions because the rates of spontaneous hydrolysis are much longer than for enzyme-catalyzed hydrolysis. The aliquots are analyzed at a 1:10 dilution using HPLC, and the fraction of prodrug which has been converted at each time point calculated.
(§4) The rate of formation of the drug and the rate of decay of the prodrug had doubling and half-life times, respectively, of about 30 minutes. In contrast, the estimated half-life of Val-B-EMAU in physiological saline at 37° C. was greater then 5000 hours. The mechanism for the decomposition of Val-B-EMAU by plasma is presumed to involve esterases in the circulation.
(§5) To further define the conversion rate of Val-B-EMAU (4a), the prodrug was incubated in 80% mouse plasma.

The target in a further series is B. subtilis DNA pol III (Bacillus subtilis, UniProt P13267). Description: Inhibition of B. subtilis DNA pol III (Ki). The class given is biochemical. How it is done:
as §1
The competitive inhibitor constants (Ki) of selected EMAU compounds were determined with three different pol Ills: the pol III enzyme from Bacillus subtilis (BS pol III), and the pol III enzymes of the clinically relevant pathogens, Enterococcus fecalis (EF pol III) and Staphylococcus aureus (SA pol 111).

The test system of series [3] is S. aureus. The experiment in a line: MIC against S. aureus (methicillin-sensitive). The class given is cell-based. As to conditions: for MIC: Staphylococcus aureus. How it is done: as §1, §2
Series [4] relates to S. aureus (methicillin-sensitive Smith strain). The experiment in a line: ip/ip mouse protection against lethal S. aureus infection. Type of series: in vivo, mice. Conditions: 10 mg/kg, four day experiment, ten animals. How it is done:
Step 1: Screening—Each candidate prodrug is screened for activity in an ip/ip S. aureus protection model. Candidates that display efficacy equivalent to that of HB-EMAU and HB-IMAU are selected for advanced pharmacokinetic analysis and application in the more relevant mouse thigh model of infection.
The efficacy of the propyl derivatives was tested against murine staphylococcal infection in vivo. A simple “ip/ip” system was used, in which 20 gram mice (10 each) were injected ip (intraperitoneally) with a lethal dose (2.3×10^7 CFU) of the methicillin-sensitive Smith strain of S. aureus. The mice were then immediately injected ip with the antibiotic agent as a 1:9 mixture of DMSO:peanut oil. Vancomycin was used as the positive control drug.
Both hydroxybutyl compounds were tested at 10 mg/kg in the mouse protection experiment against lethal S. aureus infection described in Example 4 above.

The nature of another series: Solubility in water. Type of series: physicochemical. Conditions: 25° C. From the text:
The prodrug 3-(L-valylbutyl)-EMAU (Val-B-EMAU, 4a) was synthesized as a hydrochloride. The structure was confirmed by NMR. The compound had high solubility in water. […] Two different synthesis methods were used.

Series [5] can be described thus: Plasma pharmacokinetics after oral administration to mice. Type of series: in vivo. Here is the method:
(e) Uptake from subcutaneous (sc), intraperitoneal (ip), and oral (Po) routes, Oral dosing can be performed by gavage with a small stomach tube to DecapiCone-restrained animals. […] At specific times following administration (e.g., 15, 30, 60, 90, 150 and 240 minutes), two mice are sacrificed and their plasma samples prepared and analyzed by HPLC as described above in (d). Following decapitation, the site of drug application in each animal's carcass is dissected and inspected visually for evidence of precipitation.
Each value plotted in FIG. 4 is an average of two measurement, each in a different animal.

Series [6] in a line: Plasma pharmacokinetics after intravenous administration to mice. As to conditions: for half-life: mouse, plasma, 25 mg/kg. The class given is in vivo. How it is done: (d) Elimination halfife and apparent volume of distribution. An appropriate dose of each agent (the maximum permitted by the results of the above dose/toxicity studies) is injected via the tail vein to a series of mice (e.g., 12). At specific times following injection (e.g., 10, 20, 30, 45, 90, and 150 minutes), mice (e.g., a pair) are restrained in DecapiCones and decapitated, and their blood collected individually by exsanguination into a sterile test tube.
The blood samples are centrifuged to yield clear plasma (yield: 0.4-0.6 ml per mouse). Approximately 0.2 ml of the plasma sample are used for HPLC analysis, using conditions established herein for quantitation of the compound. The individual plasma levels for each time point are averaged, and the data are analyzed to estimate Vd and half-life by established methods (Gibaldi, M. and D. Perrier. Pharmacokinetics. Marcel Dekker, Inc., New York, 1975).
Solutions of Val-B-EMAU in saline were next injected into the tail veins of mice at a dose of 25 mg/kg body weight. Animals were sacrificed at various times after dosing, and plasma was isolated and subjected to HPLC analysis.
Each value plotted in FIG. 3 represents the average of four measurements, each in a different animal.

The subject of another series is B. subtilis. Description: MIC against B. subtilis. Conditions: for MIC: Bacillus subtilis, Table 6, read-out: MIC B. subtilis. Type of series: cell-based. Here is the method:
as §1, §2

A further series concerns MRSA. The experiment in a line: MIC against methicillin-resistant S. aureus strain MRSA / MRSA1. Type of series: cell-based. As to conditions: Table 2. Here is the method: as §1, §2
The next series deals with E. coli. The experiment in a line: MIC against E. coli (Gram-negative control). As to conditions: Table 2. The class given is cell-based. How it is done: as §1, §2
Series [7] is described as follows: Prodrug stability in physiological saline. The class given is physicochemical. How it is done:
as §3, §4, §5

In series [8] the test system is vancomycin-resistant E. fecium. Description: MIC against vancomycin-resistant E. fecium (VRE, VREF*). The class given is cell-based. Conditions: Table 2, vancomycin-resistant E. fecium. Here is the method:
as §1, §2

For the next series, the system named is MRSA2. Description: MIC against methicillin-resistant S. aureus strain MRSA2. Type of series: cell-based. As to conditions: Table 2. Here is the method:
as §1, §2

In another series the test system is E. fecium. The experiment in a line: MIC against E. fecium. Type of series: cell-based. As to conditions: Table 2. Here is the method:
as §1

The mark [9] stands for this setting: Table 1, read-out: Ki B. subtilis pol III.
Setting [10] is: Table 6, read-out: Ki, inhibition constant vs. B. subtilis DNA pol III.

Chain of B. subtilis DNA pol III (P13267 whole entry): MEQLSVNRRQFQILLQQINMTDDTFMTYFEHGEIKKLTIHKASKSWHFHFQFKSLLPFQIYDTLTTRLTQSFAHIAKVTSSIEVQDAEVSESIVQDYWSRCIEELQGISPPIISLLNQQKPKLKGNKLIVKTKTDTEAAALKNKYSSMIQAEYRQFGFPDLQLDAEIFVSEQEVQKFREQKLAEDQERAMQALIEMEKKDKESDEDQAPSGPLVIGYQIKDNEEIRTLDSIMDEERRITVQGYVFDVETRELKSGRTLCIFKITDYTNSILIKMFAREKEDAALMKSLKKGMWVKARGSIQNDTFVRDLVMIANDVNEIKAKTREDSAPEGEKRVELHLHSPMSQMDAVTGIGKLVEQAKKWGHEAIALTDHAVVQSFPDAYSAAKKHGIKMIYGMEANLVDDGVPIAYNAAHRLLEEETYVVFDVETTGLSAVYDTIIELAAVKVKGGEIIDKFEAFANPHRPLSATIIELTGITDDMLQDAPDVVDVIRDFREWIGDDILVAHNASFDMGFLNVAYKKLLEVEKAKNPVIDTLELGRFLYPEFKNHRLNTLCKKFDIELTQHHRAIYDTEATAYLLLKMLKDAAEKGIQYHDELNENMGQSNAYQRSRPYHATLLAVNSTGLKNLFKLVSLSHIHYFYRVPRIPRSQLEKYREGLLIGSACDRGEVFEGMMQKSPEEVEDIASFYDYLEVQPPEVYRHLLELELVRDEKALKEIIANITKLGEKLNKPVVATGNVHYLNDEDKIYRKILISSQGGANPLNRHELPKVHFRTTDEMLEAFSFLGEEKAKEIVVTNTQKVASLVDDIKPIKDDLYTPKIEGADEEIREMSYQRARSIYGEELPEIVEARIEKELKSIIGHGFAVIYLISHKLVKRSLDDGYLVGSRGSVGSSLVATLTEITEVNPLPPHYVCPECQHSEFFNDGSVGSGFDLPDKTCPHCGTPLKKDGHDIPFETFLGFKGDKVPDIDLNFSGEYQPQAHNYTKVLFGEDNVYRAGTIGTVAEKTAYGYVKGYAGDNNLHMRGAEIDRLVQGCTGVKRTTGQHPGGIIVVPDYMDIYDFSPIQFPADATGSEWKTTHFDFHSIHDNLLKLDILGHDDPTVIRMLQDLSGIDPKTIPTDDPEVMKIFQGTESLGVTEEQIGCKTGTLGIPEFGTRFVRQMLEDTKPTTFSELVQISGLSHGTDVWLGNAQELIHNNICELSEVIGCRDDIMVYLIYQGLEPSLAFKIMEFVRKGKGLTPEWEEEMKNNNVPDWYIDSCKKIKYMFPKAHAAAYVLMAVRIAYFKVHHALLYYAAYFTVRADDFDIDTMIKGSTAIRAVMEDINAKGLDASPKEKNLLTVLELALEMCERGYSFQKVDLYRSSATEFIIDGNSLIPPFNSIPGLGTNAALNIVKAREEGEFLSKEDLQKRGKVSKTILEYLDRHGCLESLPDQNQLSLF

As usually defined, the MIC is the lowest concentration found to suppress growth. As usually defined, the Ki is a dissociation constant, usually derived from enzyme kinetics or from competition with a known ligand. One may read the solubility as how much of the substance goes into solution per volume. Read a low solubility as a poorly soluble substance. As usually defined, the half-life is the time in which the quantity being followed falls by half. On to `CCc1cc(Nc2cc(=O)n(CCCCO)c(=O)[nH]2)ccc1C` [HB-EMAU], for which the MIC in the series with E. fecalis was 6 µg/mL (≈ 18.9 µM); in the series with S. aureus [3] (read-out: MIC S. aureas), 6 µg/mL (≈ 18.9 µM); in the series with B. subtilis it was below 3.1 µg/mL. Moreover, the “bactericidal for S. aureus” value with S. aureus [1] is on record as “bactericidal”. Besides, in series [2] (mouse), the “doubling time of formation of the drug” value was “about 30 minutes”. Further, the values for the Ki on B. subtilis DNA pol III (setting [9]) and on B. subtilis DNA pol III (setting [10]) were 190 nM and 180 nM, respectively. Also, the “animals protected from death” value in series [4] was “all ten animals”. Further, the solubility in the series “Solubility in water” is around 30 µg/mL (≈ 94.5 µM). In addition, the “area under the curve for HB-EMAU, estimated” value in series [5] (HB-EMAU administered directly) is on record as 0.1%. The “peak concentration of HB-EMAU” value in series [5] (mice, after oral VB-EMAU 100 mg/Kg) was 11.2 μM and 3.5 μg/ml. The “plasma HB-EMAU at four hours after administration” value in series [5] (mice, after oral Val-B-EMAU (4a) 100 mg/Kg) was “no detectable”. The “time at which plasma level of HB-EMAU peaked” value in [5] (mice, after oral Val-B-EMAU (4a) 100 mg/Kg in physiological saline (FIG. 4)) was 60 min. The “time at which HB-EMAU concentration peaked” value in [6] (after iv Val-B-EMAU 25 mg/kg (FIG. 1)) is on record as “about 20 minutes”. Also, the half-life in series [6] (iv, after iv Val-B-EMAU 25 mg/kg (FIG. 1), read-out: half life of HB-EMAU) is around 43 min; in series [6] (iv, after iv Val-B-EMAU (4a) 25 mg/Kg (FIG. 3), average of four measurements, read-out: elimination half-life of HB-EMAU), 15.6 min.

Consider `Cc1ccc(Nc2cc(=O)n(CCCCO)c(=O)[nH]2)cc1I` [HB-IMAU], for which the minimal inhibitory concentration (MIC) in the series with E. fecalis is 6 µg/mL (≈ 14.4 µM); with S. aureus [3] (read-out: MIC S. aureas), 6 µg/mL (≈ 14.4 µM); in the series on B. subtilis, below 3.1 µg/mL. Moreover, the “bactericidal for S. aureus” value with S. aureus [1] is reported as “bactericidal”. Also, the Ki on B. subtilis DNA pol III (setting [10]) is 220 nM. The “animals protected from death” value in series [4] is on record as “nine of ten animals”.

As to `CCc1cc(Nc2cc(=O)n(CCCCOC(=O)[C@@H](N)C(C)C)c(=O)[nH]2)ccc1C` [Val-B-EMAU, 3-(L-valylbutyl)-EMAU], in the series on E. fecalis (Table 2), the “MIC E. fecalis” value worked out at 17 μ/ml. Moreover, the “MIC MRSA” value in the series on MRSA was 33 μ/ml. Further, the “MIC E. coli” value against E. coli was above 33 μ/ml. The half-life in [2] (80% mouse plasma, 37° C. (FIG. 2), read-out: prodrug half-life) was 37.8 min; in series [2] (mouse plasma, 37° C., HPLC, read-out: half-life of decay of the prodrug) it was around 30 min; in [7] (37° C., read-out: estimated half-life in physiological saline), above 208 days; in [7] (b125, read-out: half-life in physiological saline), 18.8 to 20.8 days; in series [6] (intravenous, tail vein, 25 mg/kg in saline (FIG. 1), read-out: half life of Val-B-EMAU in plasma) it was 34 min. Moreover, the “MIC VRE” value in [8] is given as 8 μ/ml. The Ki at B. subtilis DNA pol III (setting [9]) was determined as 530 nM; at B. subtilis DNA pol III (Table 2, prodrugs having the EMAU core, read-out: Ki B. subtilis DNA Pol III), 530 nM. In addition, in the series on S. aureus [3] (Table 1, read-out: MIC S. aureus), the MIC was below 20 µg/mL. The “MIC S. aureus” value in the series with S. aureus [3] (Table 2) was found to be 17 μ/ml. Also, the solubility in the series “Solubility in water” is above 10000 µg/mL. Besides, the “MIC MRSA2” value in the series on MRSA2 is reported as 33 μ/ml. Besides, the “MIC B. subtilis” value in the series with B. subtilis (Table 2) was 4 μ/ml. Moreover, in the series on E. fecium, the “MIC E. fecium” value worked out at 33 μ/ml.
